Assay results taken from ChEMBL document CHEMBL4680212, “Discovery of T-1101 tosylate as a first-in-class clinical candidate for Hec1/Nek2 inhibition in cancer therapy” (Eur J Med Chem, 2020).
Blank lines part the entries; values can stand above or below the molecule they belong to.

Experiments:
[1] = AUC in CD-1 mouse at 10 mg/kg, po administered as single dose via gavage by LC-MS/MS analysis; format: ADME, organism-based; set-up: dose 10 mg/kg; conditions: in vivo
[2] = Oral bioavailability in CD-1 mouse at 10 mg/kg administered as single dose via gavage by LC-MS/MS analysis; format: ADME, organism-based; conditions: in vivo
[3] = Tmax in CD-1 mouse at 10 mg/kg, po administered as single dose via gavage by LC-MS/MS analysis; format: ADME, organism-based; conditions: in vivo
[4] = Cmax in CD-1 mouse at 10 mg/kg, po administered as single dose via gavage by LC-MS/MS analysis; format: ADME, organism-based; set-up: route oral, dose 10 mg/kg; conditions: in vivo
[5] = Half life in CD-1 mouse at 10 mg/kg, po administered as single dose via gavage by LC-MS/MS analysis; format: ADME, organism-based; conditions: in vivo
[6] = Tmax in Beagle dog at 10 mg/kg, po administered as single dose via gavage by LC-MS/MS analysis; format: ADME, organism-based, Canis lupus familiaris; conditions: in vivo
[7] = Cmax in Beagle dog at 10 mg/kg, po administered as single dose via gavage by LC-MS/MS analysis; format: ADME, organism-based, Canis lupus familiaris; set-up: route oral, dose 10 mg/kg; conditions: in vivo
[8] = AUC in Beagle dog at 10 mg/kg, po administered as single dose via gavage by LC-MS/MS analysis; format: ADME, organism-based, Canis lupus familiaris; set-up: dose 10 mg/kg; conditions: in vivo
[9] = Half life in Beagle dog at 10 mg/kg, po administered as single dose via gavage by LC-MS/MS analysis; format: ADME, organism-based, Canis lupus familiaris; conditions: in vivo
[10] = Oral bioavailability in Beagle dog at 10 mg/kg administered as single dose via gavage by LC-MS/MS analysis; format: ADME, organism-based, Canis lupus familiaris; conditions: in vivo
MDA-MB-231 [11] = assay: Antiproliferative activity against human MDA-MB-231 cells measured after 96 hrs by CellTiter 96 Aqueous One Solution Reagent based assay; format: functional, cell-based; conditions: MDA-MB-231, 96 h
MDA-MB-468 [12] = assay: Antiproliferative activity against human MDA-MB-468 cells measured after 96 hrs by CellTiter 96 Aqueous One Solution Reagent based assay; format: functional, cell-based; conditions: MDA-MB-468, 96 h
K562 = assay: Antiproliferative activity against human K562 cells measured after 96 hrs by CellTiter 96 Aqueous One Solution Reagent based assay; format: functional, cell-based; conditions: K562, 96 h
HeLa [13] = assay: Antiproliferative activity against human HeLa cells measured after 96 hrs by CellTiter 96 Aqueous One Solution Reagent based assay; format: functional, cell-based
MDA-MB-468 [14] = assay: Induction of mitosis in human MDA-MB-468 cells assessed as mitotic abnormalities at 1 uM measured after 24 hrs by immunofluorescence staining based microscopic analysis (reference value: 23%); format: functional
MDA-MB-468 [15] = assay: Induction of mitosis in human MDA-MB-468 cells assessed as mitotic abnormalities at 1 uM measured after 48 hrs by immunofluorescence staining based microscopic analysis (reference value: 23%); format: functional
HeLa [16] = assay: Cell cycle arrest in human HeLa cells assessed as accumulation at sub-G1 phase at 1 uM measured after 24 hrs by propidium iodide staining based FACS analysis (reference value: 3.64%); format: functional
HeLa [17] = assay: Cell cycle arrest in human HeLa cells assessed as accumulation at G1 phase at 1 uM measured after 24 hrs by propidium iodide staining based FACS analysis (reference value: 66.51%); format: functional
HeLa [18] = assay: Cell cycle arrest in human HeLa cells assessed as accumulation at S phase at 1 uM measured after 24 hrs by propidium iodide staining based FACS analysis (reference value: […]%); format: functional
HeLa [19] = assay: Cell cycle arrest in human HeLa cells assessed as accumulation at G2/M phase at 1 uM measured after 24 hrs by propidium iodide staining based FACS analysis (reference value: 12.93%); format: functional
U-937 = assay: Antiproliferative activity against human U-937 cells measured after 96 hrs by CellTiter 96 Aqueous One Solution Reagent based assay; format: functional
COLO 205 = assay: Antiproliferative activity against human COLO 205 cells measured after 96 hrs by CellTiter 96 Aqueous One Solution Reagent based assay; format: functional
U2OS = assay: Antiproliferative activity against human U2OS cells measured after 96 hrs by CellTiter 96 Aqueous One Solution Reagent based assay; format: functional
[20] = target: Voltage-gated inwardly rectifying potassium channel KCNH2 (Homo sapiens, UniProt Q12809); assay: Inhibition of human ERG
Voltage-gated inwardly rectifying potassium channel KCNH2, sequence (Q12809 whole entry): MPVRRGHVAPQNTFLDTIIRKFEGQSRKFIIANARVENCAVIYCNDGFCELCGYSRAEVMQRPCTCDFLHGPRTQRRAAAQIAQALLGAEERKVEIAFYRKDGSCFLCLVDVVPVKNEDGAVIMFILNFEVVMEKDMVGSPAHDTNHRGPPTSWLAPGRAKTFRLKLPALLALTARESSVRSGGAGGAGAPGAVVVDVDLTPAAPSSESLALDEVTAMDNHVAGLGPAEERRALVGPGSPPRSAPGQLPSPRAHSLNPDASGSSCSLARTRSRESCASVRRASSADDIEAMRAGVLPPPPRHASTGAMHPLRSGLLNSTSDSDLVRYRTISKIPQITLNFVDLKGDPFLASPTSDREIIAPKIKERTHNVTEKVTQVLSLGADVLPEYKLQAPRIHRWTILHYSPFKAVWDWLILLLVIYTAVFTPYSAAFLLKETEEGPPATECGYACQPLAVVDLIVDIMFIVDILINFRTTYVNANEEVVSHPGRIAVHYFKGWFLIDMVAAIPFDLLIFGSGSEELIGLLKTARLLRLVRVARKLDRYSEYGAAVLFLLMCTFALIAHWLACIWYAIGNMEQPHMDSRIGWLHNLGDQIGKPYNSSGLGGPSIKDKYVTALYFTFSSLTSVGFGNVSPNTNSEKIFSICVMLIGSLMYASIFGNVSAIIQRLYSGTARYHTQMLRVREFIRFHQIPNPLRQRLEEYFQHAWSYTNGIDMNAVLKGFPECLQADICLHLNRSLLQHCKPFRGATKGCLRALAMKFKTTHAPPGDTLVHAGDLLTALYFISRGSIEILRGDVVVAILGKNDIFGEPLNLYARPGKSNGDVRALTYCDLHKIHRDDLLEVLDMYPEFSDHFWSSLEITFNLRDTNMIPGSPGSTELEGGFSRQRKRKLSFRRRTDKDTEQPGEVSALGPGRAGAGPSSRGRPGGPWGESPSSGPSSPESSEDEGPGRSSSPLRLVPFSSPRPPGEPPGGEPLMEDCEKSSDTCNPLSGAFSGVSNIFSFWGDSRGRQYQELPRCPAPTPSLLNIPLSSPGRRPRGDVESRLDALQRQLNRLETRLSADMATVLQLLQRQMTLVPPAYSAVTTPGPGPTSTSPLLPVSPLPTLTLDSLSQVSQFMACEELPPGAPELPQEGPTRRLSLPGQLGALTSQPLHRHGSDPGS

[21] = Drug level in tumor of human Huh-7 cells xenografted SCID mouse at 10 mg/kg, iv measured after 0.5 hrs by LC-MS/MS analysis; format: ADME, organism-based, Neoplasm; conditions: read-out: Drug uptake
[22] = Drug level in tumor of human Huh-7 cells xenografted SCID mouse at 10 mg/kg, iv measured after 1 hr by LC-MS/MS analysis; format: ADME, organism-based, Neoplasm; conditions: read-out: Drug uptake
[23] = Drug level in tumor of human Huh-7 cells xenografted SCID mouse at 10 mg/kg, iv measured after 4 hrs by LC-MS/MS analysis; format: ADME, organism-based, Neoplasm; conditions: read-out: Drug uptake
[24] = Drug level in tumor of human Huh-7 cells xenografted SCID mouse at 10 mg/kg, iv measured after 8 hrs by LC-MS/MS analysis; format: ADME, organism-based, Neoplasm; conditions: read-out: Drug uptake
[25] = Drug level in tumor of human Huh-7 cells xenografted SCID mouse at 10 mg/kg, iv measured after 12 hrs by LC-MS/MS analysis; format: ADME, organism-based, Neoplasm; conditions: read-out: Drug uptake
[26] = Drug level in tumor of human Huh-7 cells xenografted SCID mouse at 10 mg/kg, iv measured after 24 hrs by LC-MS/MS analysis; format: ADME, organism-based, Neoplasm; conditions: read-out: Drug uptake
Huh-7 [27] = assay: Antiproliferative activity against human Huh-7 cells by CellTiter 96 Aqueous One Solution Reagent based assay; format: functional; set-up: dose or concentration left out as unconfirmed
Huh-7 [28] = assay: Anticancer activity against human Huh-7 cells after 24 hrs by CellTiter 96 Aqueous One Solution Reagent based assay; format: functional
[29] = Ratio of drug level in tumor to plasma of human Huh-7 cells xenografted SCID mouse at 10 mg/kg, iv measured after 0.5 hrs by LC-MS/MS analysis; format: ADME, organism-based; conditions: tumour
[30] = Ratio of drug level in tumor to plasma of human Huh-7 cells xenografted SCID mouse at 10 mg/kg, iv measured after 1 hr by LC-MS/MS analysis; format: ADME, organism-based; conditions: tumour
[31] = Ratio of drug level in tumor to plasma of human Huh-7 cells xenografted SCID mouse at 10 mg/kg, iv measured after 4 hrs by LC-MS/MS analysis; format: ADME, organism-based; conditions: tumour
[32] = Ratio of drug level in tumor to plasma of human Huh-7 cells xenografted SCID mouse at 10 mg/kg, iv measured after 8 hrs by LC-MS/MS analysis; format: ADME, organism-based; conditions: tumour
[33] = Ratio of drug level in tumor to plasma of human Huh-7 cells xenografted SCID mouse at 10 mg/kg, iv measured after 12 hrs by LC-MS/MS analysis; format: ADME, organism-based; conditions: tumour
[34] = Ratio of drug level in tumor to plasma of human Huh-7 cells xenografted SCID mouse at 10 mg/kg, iv measured after 24 hrs by LC-MS/MS analysis; format: ADME, organism-based; conditions: tumour
[35] = Drug level in tumor of human MDA-MB-231 cells xenografted SCID mouse at 10 mg/kg, iv measured after 2 hrs by LC-MS/MS analysis; format: ADME, organism-based, Neoplasm; conditions: read-out: Drug uptake
[36] = Ratio of drug level in tumor to plasma of human MDA-MB-231 cells xenografted SCID mouse at 10 mg/kg, iv measured after 2 hrs by LC-MS/MS analysis; format: ADME, organism-based; conditions: tumour
Huh-7 [37] = assay: Antitumor activity against human Huh-7 cells xenografted in SCID mouse assessed as tumor growth at 50 mg/kg, po administered twice daily for 28 days measured post last dose relative to control; format: functional; conditions: time 28 day
BT-474 = assay: Antitumor activity against human BT-474 cells xenografted in SCID mouse assessed as tumor growth at 50 mg/kg, po administered twice daily for 28 days measured post last dose relative to control; format: functional; conditions: time 28 day
MCF7 = assay: Antitumor activity against human MCF7 cells xenografted in SCID mouse assessed as tumor growth at 50 mg/kg, po administered twice daily for 28 days measured post last dose relative to control; format: functional; conditions: time 28 day
MDA-MB-231 [38] = assay: Antitumor activity against human MDA-MB-231 cells xenografted in SCID mouse assessed as tumor growth at 25 mg/kg, po administered twice daily for 28 days measured post last dose relative to control; format: functional; conditions: time 28 day
Huh-7 [39] = assay: Antitumor activity against human Huh-7 cells xenografted in SCID mouse assessed as tumor growth at 25 mg/kg, po administered once daily for 28 days measured post last dose relative to control; format: functional; conditions: time 28 day
Huh-7 [40] = assay: Antitumor activity against human Huh-7 cells xenografted in SCID mouse assessed as tumor growth at […], po administered twice daily for 28 days measured post last dose in presence of sorafenib relative to control; format: functional; conditions: time 28 day
Huh-7 [41] = assay: Antitumor activity against human Huh-7 cells xenografted in SCID mouse assessed as tumor growth at […], po administered twice daily for 28 days measured post last dose relative to control; format: functional; conditions: time 28 day
[42] = Toxicity in Sprague-Dawley rat assessed as effect on locomotor activity up to 60 mg/kg, po administered as single dose; format: organism-based; conditions: in vivo
[43] = Toxicity in Sprague-Dawley rat assessed as restlessness up to 60 mg/kg, po administered as single dose; format: organism-based; conditions: in vivo
[44] = Toxicity in Sprague-Dawley rat assessed as lethargy up to 60 mg/kg, po administered as single dose; format: organism-based; conditions: in vivo
[45] = Toxicity in Sprague-Dawley rat assessed as tremor up to 60 mg/kg, po administered as single dose; format: organism-based; conditions: in vivo
[46] = Toxicity in Sprague-Dawley rat assessed as convulsion up to 60 mg/kg, po administered as single dose; format: organism-based; conditions: in vivo
[47] = Toxicity in Sprague-Dawley rat assessed as change in touch response up to 60 mg/kg, po administered as single dose; format: organism-based; conditions: in vivo
[48] = Toxicity in Beagle dog assessed as cardiopulmonary effect at 40 mg/kg, po administered as single dose; format: organism-based, Canis lupus familiaris; conditions: in vivo
[49] = Toxicity in Sprague-Dawley rat assessed as change in clinical pathology at 60 mg/kg, po measured during 28 days; format: organism-based; conditions: in vivo, time 28 day
[50] = Toxicity in Sprague-Dawley rat assessed as change in serum biochemistry at 60 mg/kg, po measured during 28 days; format: organism-based; conditions: in vivo, time 28 day
[51] = Toxicity in Sprague-Dawley rat assessed as effect on organ at 60 mg/kg, po measured during 28 days; format: organism-based; conditions: in vivo, time 28 day

AUC [1]: 62.5 µM·h | bioavailability [2]: 77.4% | Tmax [3]: 1 h | Cmax [4]: 8130 nM | half-life [5]: 2.81 h | Tmax [6]: 1 h | Cmax [7]: 980 nM | AUC [8]: 8.61 µM·h | half-life [9]: 4.53 h | bioavailability [10]: 24.9%
SMILES: COCCOc1cnc(Sc2cc(C)c(-c3csc(NC(=O)c4ccncc4)n3)c(C)c2)cn1.Cc1ccc(S(=O)(=O)O)cc1

IC50 (MDA-MB-231 [11]): 14.8 nM | IC50 (MDA-MB-468 [12]): 21.5 nM | IC50 (K562): 18 nM | IC50 (HeLa [13]): 21.1 nM | AUC [1]: 43.5 µM·h | bioavailability [2]: 50.6% | GI50 (U-937): 12.4 nM | GI50 (COLO 205): 29.1 nM | GI50 (U2OS): 83.2 nM | concentration at 0.5 h [21]: 3380 nM | concentration at 1 h [22]: 2660 nM | concentration at 4 h [23]: 2070 nM | concentration at 8 h [24]: 937 nM | concentration at 12 h [25]: 507 nM | concentration at 24 h [26]: 59.9 nM | GI50 (Huh-7 [27]): 35 nM | GI50 (Huh-7 [28]): 59.9 nM | Ratio [29]: 20.7% | Ratio [30]: 26.1% | Ratio [31]: 33.2% | Ratio [32]: 35% | Ratio [33]: 60.5% | Ratio [34]: 41.1% | concentration at 2 h [35]: 2950 nM | Ratio [36]: 24.1% | Tmax [3]: 0.5 h | Cmax [4]: 6300 nM | half-life [5]: 2.57 h
SMILES: COCCOc1cnc(Sc2cc(C)c(-c3csc(NC(=O)c4ccncc4)n3)c(C)c2)cn1
Activity (MDA-MB-468 [14]): 45% | Activity (MDA-MB-468 [15]): 64% | Activity (HeLa [16]): 20.44% | Activity (HeLa [17]): 54.2% | Activity (HeLa [18]): 15.07% | Activity (HeLa [19]): 9.27% | inhibition (INH) [20]: Not Active | T/C (Huh-7 [37]): 18% | T/C (BT-474): 19% | T/C (MCF7): 52% | T/C (MDA-MB-231 [38]): 40% | T/C (Huh-7 [39]): 25% | T/C (Huh-7 [40]): 26% | T/C (Huh-7 [41]): 61% | Activity [42]: Non-Toxic | Activity [43]: Non-Toxic | Activity [44]: Non-Toxic | Activity [45]: Non-Toxic | Activity [46]: Non-Toxic | Activity [47]: Non-Toxic | Activity [48]: Non-Toxic | Activity [49]: Non-Toxic | Activity [50]: Non-Toxic | Activity [51]: Non-Toxic
